From patent US20230183219A1, “CONDENSED SUBSTITUTED HYDROPYRROLES AS ANTAGONISTS OF THE MUSCARINIC ACETYLCHOLINE RECEPTOR M4” (Vanderbilt University, priority 2020, published 2023)

Target: T1, Human M4 (Homo sapiens, UniProt P08173)
T1 construct: Human or rat M4 cDNA, along with the chimeric G protein Gqi5, were transfected into Chinese hamster ovary (CHO-K1) cells; expressed in transfected cells; host or cells: CHO-K1 (Chinese hamster ovary, ATCC), stably co-expressing Gqi5
T1 sequence (P08173 1-479): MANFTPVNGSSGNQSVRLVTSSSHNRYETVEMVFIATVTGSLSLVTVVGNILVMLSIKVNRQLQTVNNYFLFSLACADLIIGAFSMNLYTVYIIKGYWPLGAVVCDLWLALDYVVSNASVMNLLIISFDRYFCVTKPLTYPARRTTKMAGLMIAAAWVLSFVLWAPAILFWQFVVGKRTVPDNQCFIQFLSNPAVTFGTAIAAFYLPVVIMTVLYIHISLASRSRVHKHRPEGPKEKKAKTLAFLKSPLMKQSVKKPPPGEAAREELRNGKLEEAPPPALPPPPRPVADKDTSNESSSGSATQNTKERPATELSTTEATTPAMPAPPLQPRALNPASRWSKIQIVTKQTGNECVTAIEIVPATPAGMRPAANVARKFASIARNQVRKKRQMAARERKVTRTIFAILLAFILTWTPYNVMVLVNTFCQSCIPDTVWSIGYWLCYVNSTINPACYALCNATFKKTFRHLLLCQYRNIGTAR
Experiment: mAChR M4 cell-based functional assay (calcium flux, decrease of EC80 acetylcholine response)
Conditions: for remaining activity at 30 µM: % ACh maximum at 30 μM, read-out: Human M4 Emin; for IC50: M4/Gqi5/CHO-K1 cells, decrease of response to EC80 acetylcholine
In short: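 CHO-K1 cells stably co-expressing M4 and chimeric Gqi5, loaded with Fluo-4 AM; calcium flux read on FDSS. Compound added at 2 s, EC20 acetylcholine at 143 s, EC80 acetylcholine at 268 s. IC50 from concentration-dependent decrease of the EC80 response, four-parameter logistic fit; 10-point 1:3 titrations.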

Row | Compound | remaining activity at 30 µM | IC50
1 | CC(C)c1ccc(F)c(-c2cc(C(F)(F)F)c(N[C@H]3C[C@@H]4CN(CC5CCOCC5)C[C@@H]4C3)nn2)c1 [Example 96, (3aR,5s,6aS)-N-(6-(2-fluoro-5-isopropylphenyl)-4-(trifluoromethyl)pyridazin-3-yl)-2-((tetrahydro-2H-pyran-4-yl)methyl)octahydro-cyclopenta[c]pyrrol-5-amine] | 3% | 2040 nM
2 | Cc1c(F)cc(F)cc1-c1cc(C(F)(F)F)c(N[C@H]2C[C@@H]3CN(CC4CCOCC4)C[C@@H]3C2)nn1 [Example 46, (3aR,5s,6aS)-N-(6-(3,5-difluoro-2-methylphenyl)-4-(trifluoromethyl)pyridazin-3-yl)-2-((tetrahydro-2H-pyran-4-yl)methyl)octahydro-cyclopenta[c]pyrrol-5-amine] | 4% | 384 nM
3 | Cc1ccc(C)c(-c2cc(C(F)(F)F)c(N[C@H]3C[C@@H]4CN(C[C@@H]5COCCO5)C[C@@H]4C3)nn2)c1 [Example 71, (3aR,5s,6aS)-2-(((R)-1,4-dioxan-2-yl)methyl)-N-(6-(2,5-dimethylphenyl)-4-(trifluoromethyl)pyridazin-3-yl)octahydro-cyclopenta[c]pyrrol-5-amine] | 3% | 183 nM
4 | Cn1cc2cc(-c3cnc(N[C@H]4C[C@@H]5CN(Cc6ccc7c(c6)OCO7)C[C@@H]5C4)nc3)ccc2n1 [Example 13, (3aR,5s,6aS)-2-(benzo[d][1,3]dioxol-5-ylmethyl)-N-(5-(2-methyl-2H-indazol-5-yl)pyrimidin-2-yl)octahydro-cyclopenta[c]pyrrol-5-amine] | 10% | 5290 nM
5 | [2H]C([2H])([C@H]1CCOC1)N1C[C@H]2C[C@H](Nc3nnc(-c4cc(C)ccc4C)cc3C(F)(F)F)C[C@H]2C1 [Example 116, (3aR,5s,6aS)-N-(6-(2,5-dimethylphenyl)-4-(trifluoro-methyl)pyridazin-3-yl)-2-(((R)-tetrahydrofuran-3-yl)methyl-d2)octahydro-cyclopenta[c]pyrrol-5-amine] | 3% | 266 nM
6 | N#Cc1ccc(F)c(-c2cc(C(F)(F)F)c(N[C@H]3C[C@@H]4CN(CC5CCOCC5)C[C@@H]4C3)nn2)c1 [Example 54, 4-fluoro-3-(6-(((3aR,5s,6aS)-2-((tetrahydro-2H-pyran-4-yl)methyl)octahydro-cyclopenta[c]pyrrol-5-yl)amino)-5-(trifluoro-methyl)pyridazin-3-yl)benzonitrile] | 4% | 223 nM
7 | CN1Cc2cc(-c3cc(C(F)(F)F)c(N[C@H]4C[C@@H]5CN(CC6CCOCC6)C[C@@H]5C4)nn3)ccc2C1=O [Example 86, 2-methyl-5-(6-(((3aR,5s,6aS)-2-((tetrahydro-2H-pyran-4-yl)methyl)octahydro-cyclopenta[c]pyrrol-5-yl)amino)-5-(trifluoro-methyl)pyridazin-3-yl)isoindolin-1-one] | 4% | 200 nM
8 | Cc1nn(C)c(C)c1-c1cc(C(F)(F)F)c(N[C@H]2C[C@@H]3CN(CC4CCOCC4)C[C@@H]3C2)nn1 [Example 40, (3aR,5s,6aS)-2-((tetrahydro-2H-pyran-4-yl)methyl)-N-(4-(trifluoromethyl)-6-(1,3,5-trimethyl-1H-pyrazol-4-yl)pyridazin-3-yl)octahydro-cyclopenta[c]pyrrol-5-amine] | 4% | 184 nM
9 | Cc1c(-c2nnc(N(C)[C@H]3C[C@@H]4CN(CC5CCOCC5)C[C@@H]4C3)cc2C(F)(F)F)ccc2nn(C)cc12 [Example 7, (3aR,5s,6aS)—N-(6-(2,4-dimethyl-2H-indazol-5-yl)-5-(trifluoromethyl)pyridazin-3-yl)-N-(methyl-d3)-2-((tetrahydro-2H-pyran-4-yl)methyl)octahydrocyclopenta [c]pyrrol-5-amine] |  | 3670 nM

The next compounds have a lower IC50 than those just listed; values first:

Row | remaining activity at 30 µM | IC50 | Compound
10 | 3% | 133 nM | Cc1ccncc1-c1cc(C(F)(F)F)c(N[C@H]2C[C@@H]3CN(CC4CCOCC4)C[C@@H]3C2)nn1 [Example 67, (3aR,5s,6aS)-N-(6-(4-methylpyridin-3-yl)-4-(trifluoromethyl)pyridazin-3-yl)-2-((tetrahydro-2H-pyran-4-yl)methyl)octahydro-cyclopenta[c]pyrrol-5-amine]
11 | 3% | 115 nM | COc1cc(C)c(-c2cc(C(F)(F)F)c(N[C@H]3C[C@@H]4CN(CC5CCOCC5)C[C@@H]4C3)nn2)cc1C [Example 52, (3aR,5s,6aS)-N-(6-(4-methoxy-2,5-dimethylphenyl)-4-(trifluoromethyl)pyridazin-3-yl)-2-((tetrahydro-2H-pyran-4-yl)methyl)octahydro-cyclopenta[c]pyrrol-5-amine]
12 | 3% | 93.8 nM | Cn1cnc2ccc(-c3cc(C(F)(F)F)c(N[C@H]4C[C@@H]5CN(CC6CCOCC6)C[C@@H]5C4)nn3)cc21 [Example 76, (3aR,5s,6aS)-N-(6-(1-methyl-1H-benzo[d]imidazol-6-yl)-4-(trifluoromethyl)pyridazin-3-yl)-2-((tetrahydro-2H-pyran-4-yl)methyl)octahydro-cyclopenta[c]pyrrol-5-amine]
13 | 3% | 64.7 nM | [2H][C@@]1(Nc2nnc(-c3cccc(F)c3)cc2C(F)(F)F)C[C@H]2CN(CC3CCOCC3)C[C@H]2C1 [Example 127, (3aR,5s,6aS)-N-(6-(3-fluoro-phenyl)-4-(trifluoromethyl)pyridazin-3-yl)-2-((tetrahydro-2H-pyran-4-yl)methyl)octahydro-cyclopenta[c]pyrrol-5-d-5-amine]
14 | 2% | 60.3 nM | [2H]C([2H])([2H])N(c1cc(C(F)(F)F)c(-c2cc(F)ccc2C)nn1)[C@H]1C[C@@H]2CN(CC3CCOCC3)C[C@@H]2C1 [Example 131, (3aR,5s,6aS)-N-(6-(5-fluoro-2-methylphenyl)-5-(trifluoromethyl)pyridazin-3-yl)-N-(methyl-d3)-2-((tetrahydro-2H-pyran-4-yl)methyl)octahydro-cyclopenta[c]pyrrol-5-amine]
15 | 5% | 54.9 nM | Cn1cc2cc(-c3cc(C#N)c(N[C@H]4C[C@@H]5CN(C[C@@H]6COCCO6)C[C@@H]5C4)nn3)ccc2n1 [Example 157, 3-(((3aR,5s,6aS)-2-(((R)-1,4-dioxan-2-yl)methyl)octahydro-cyclopenta[c]pyrrol-5-yl)amino)-6-(2-methyl-2H-indazol-5-yl)pyridazine-4-carbonitrile]
16 | 3% | 42.8 nM | CCc1ccccc1-c1cc(C(F)(F)F)c(N[C@H]2C[C@@H]3CN(CC4CCOCC4)C[C@@H]3C2)nn1 [Example 85, (3aR,5s,6aS)-N-(6-(2-ethylphenyl)-4-(trifluoro-methyl)pyridazin-3-yl)-2-((tetrahydro-2H-pyran-4-yl)methyl)octahydro-cyclopenta[c]pyrrol-5-amine]
17 | 3% | 41.2 nM | [2H]C([2H])(C1CCOCC1)N1C[C@H]2C[C@H](Nc3nnc(-c4ccccc4)cc3C(F)(F)F)C[C@H]2C1 [Example 108, (3aR,5s,6aS)-N-(6-phenyl-4-(trifluoromethyl)pyridazin-3-yl)-2-((tetrahydro-2H-pyran-4-yl)methyl-d2)octahydro-cyclopenta[c]pyrrol-5-amine]
